From patent publication US10383835B2, “Treatment of inflammatory disorders in non-human mammals” (The Regents of the University of California, priority 2012, dated 2019)

Columns and labels:
COX-2 / COX-1 = conditions: cited from earlier work
Canine sEH = Canine sEH (Canis lupus familiaris, UniProt A0A8I3NJL8); test: sEH Inhibitor Screen of Canine sEH; format: biochemical; conditions: [I] = 100 nM
sEH = sEH (Homo sapiens (Human), UniProt P34913); test: Activity as inhibitor of sEH (standard assays); format: biochemical
From the text: Derivatives of urea are transition state mimetics that form a preferred group of sEH inhibitors. […] Any particular urea derivative or other compound can be easily tested for its ability to inhibit sEH by standard assays, such as those discussed herein. The production and testing of urea and carbamate derivatives as sEH inhibitors is set forth in detail in, for example, Morisseau et al., Proc Natl Acad Sci (USA) 96:8849-8854 (1999).
One category of these inhibitors comprises inhibitors that mimic the substrate for the enzyme. The lipid alkoxides (e.g., the 9-methoxide of stearic acid) are an exemplar of this group of inhibitors.

[1] = parameters: species or system horse; conditions: in vivo
in vivo = conditions: Thoroughbred, horse, iv, 0.1 mg/kg
[2] = human volunteers; cited from earlier work
[3] = Plasma concentrations and pharmacokinetics in the laminitic horse; conditions: gabapentin 20 mg/kg BID PO
[4] = system: horse with pain due to laminitis; test: Pain (VAS) and blood pressure in one horse with naturally occurring laminitis, multimodal analgesic therapy; format: in vivo; conditions: before t-TUCB; phenylbutazone 4 mg/kg twice daily PO, gabapentin 20 mg/kg twice daily PO
COX-2 = COX-2 (Equus caballus (Horse), UniProt O19183); conditions: read-out: 80% maximal inhibitory concentration (IC80) against COX-2; cited from earlier work
COX-2, sequence (O19183 18-604): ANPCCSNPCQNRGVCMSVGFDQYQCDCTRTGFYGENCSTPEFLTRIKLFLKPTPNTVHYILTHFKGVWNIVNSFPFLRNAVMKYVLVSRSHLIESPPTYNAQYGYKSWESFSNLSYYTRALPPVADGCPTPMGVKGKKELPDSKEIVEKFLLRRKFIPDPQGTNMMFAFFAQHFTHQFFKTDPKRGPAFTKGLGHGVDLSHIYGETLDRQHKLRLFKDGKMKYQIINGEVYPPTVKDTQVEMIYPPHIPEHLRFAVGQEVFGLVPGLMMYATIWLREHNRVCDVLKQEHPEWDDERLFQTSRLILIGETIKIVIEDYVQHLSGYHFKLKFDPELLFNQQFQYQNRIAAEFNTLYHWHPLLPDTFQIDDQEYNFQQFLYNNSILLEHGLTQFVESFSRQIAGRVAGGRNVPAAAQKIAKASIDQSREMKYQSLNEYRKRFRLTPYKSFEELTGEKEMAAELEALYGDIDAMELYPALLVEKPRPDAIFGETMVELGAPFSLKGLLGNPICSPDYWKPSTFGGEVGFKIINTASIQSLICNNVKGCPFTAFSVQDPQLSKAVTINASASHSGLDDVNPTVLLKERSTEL

Canine sEH, sequence (A0A8I3NJL8 1-556): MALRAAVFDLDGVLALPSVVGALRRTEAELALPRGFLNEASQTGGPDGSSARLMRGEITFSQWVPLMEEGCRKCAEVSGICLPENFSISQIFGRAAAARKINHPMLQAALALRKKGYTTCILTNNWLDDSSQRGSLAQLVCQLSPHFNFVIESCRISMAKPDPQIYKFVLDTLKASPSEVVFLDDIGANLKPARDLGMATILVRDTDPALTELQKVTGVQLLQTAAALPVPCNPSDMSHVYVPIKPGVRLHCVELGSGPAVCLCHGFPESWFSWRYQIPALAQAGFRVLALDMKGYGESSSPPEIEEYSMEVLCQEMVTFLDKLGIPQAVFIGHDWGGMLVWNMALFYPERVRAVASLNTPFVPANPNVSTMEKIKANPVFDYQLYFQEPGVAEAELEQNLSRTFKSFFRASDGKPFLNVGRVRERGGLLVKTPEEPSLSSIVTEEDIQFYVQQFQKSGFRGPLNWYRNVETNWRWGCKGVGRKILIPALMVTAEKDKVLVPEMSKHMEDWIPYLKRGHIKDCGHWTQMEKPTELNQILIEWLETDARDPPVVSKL
sEH, sequence (P34913 whole entry): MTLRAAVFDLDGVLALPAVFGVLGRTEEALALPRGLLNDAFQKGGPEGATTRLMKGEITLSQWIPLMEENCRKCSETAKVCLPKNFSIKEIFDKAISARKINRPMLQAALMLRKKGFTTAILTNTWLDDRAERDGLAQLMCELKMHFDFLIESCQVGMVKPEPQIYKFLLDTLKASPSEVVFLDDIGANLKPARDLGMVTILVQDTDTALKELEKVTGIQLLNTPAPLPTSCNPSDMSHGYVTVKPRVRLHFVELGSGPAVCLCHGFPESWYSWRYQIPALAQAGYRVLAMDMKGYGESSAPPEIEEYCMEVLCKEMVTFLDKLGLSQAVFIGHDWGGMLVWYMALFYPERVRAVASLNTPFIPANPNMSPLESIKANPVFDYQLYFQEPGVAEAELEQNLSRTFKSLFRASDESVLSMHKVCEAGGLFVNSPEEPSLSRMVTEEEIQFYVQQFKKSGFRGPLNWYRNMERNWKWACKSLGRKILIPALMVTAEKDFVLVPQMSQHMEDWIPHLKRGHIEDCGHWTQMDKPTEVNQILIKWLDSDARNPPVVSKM

For `COc1ccc2c(c1)c(CC(=O)O)c(C)n2C(=O)c1ccc(Cl)cc1` [indomethacin], the “COX-2 (IC50)/COX-1 (IC50) ratio” value (COX-2 / COX-1) is listed as 33.
`CS(=O)(=O)NC(=O)c1ccc(O[C@H]2CC[C@H](NC(=O)Nc3ccc(OC(F)(F)F)cc3)CC2)cc1` [compound 2728, N-(methylsulfonyl)-4-(trans-4-(3-(4-trifluoromethoxy-phenyl)-ureido)-cyclohexyloxy)-benzamide] gave an inhibition at 0.1 µM (Canine sEH) of 84%.
`O=C(Nc1ccc(Oc2ccc(C(=O)O)cc2)cc1)Nc1ccc(OC(F)(F)F)cc1` [compound 2803, 4-(4-(3-(4-(trifluoromethoxy)-phenyl)-ureido)-phenoxy)-benzoic acid] gave an inhibition at 0.1 µM (Canine sEH) of 82%.
`COC(=O)c1ccc(NC2CCC(NC(=O)Nc3ccc(OC(F)(F)F)cc3)CC2)cc1` (stereo not shown) [compound 2804, methyl 4-(4-(3-(4-(trifluoromethoxy)-phenyl)-ureido)-cyclohexylamino)-benzoate] showed an inhibition at 0.1 µM (Canine sEH) of 49%.
With `CCCCCCCCCCCCNC(=O)NC12CC3CC(CC(C3)C1)C2` [ADU, N-Adamantyl-N′-dodecyl urea] the “activity as an inhibitor of sEH” value (sEH) was “particularly high activity on sEH”.
With `O=C(Nc1ccc(OC(F)(F)F)cc1)N[C@H]1CC[C@H](Oc2ccc(C(=O)NO)cc2)CC1` [compound 2761, N-hydroxy-4-(trans-4-(3-(4-(trifluoromethoxy)-phenyl)-ureido)-cyclohexyloxy)-benzamide] the inhibition at 0.1 µM (Canine sEH) was 72%.
`O=C(Nc1ccccc1F)N[C@H]1CC[C@H](Oc2ccc(C(=O)O)cc2)CC1` [compound 2736, 4-(trans-4-(3-(2-fluorophenyl)-ureido)-cyclohexyloxy)-benzoic acid] showed an inhibition at 0.1 µM (Canine sEH) of 80%.
In the case of `Cc1oc(=O)oc1COC(=O)c1ccc(O[C@H]2CC[C@H](NC(=O)Nc3ccc(OC(F)(F)F)cc3)CC2)cc1` [compound 2796, (5-methyl-2-oxo-1,3-dioxol-4-yl)methyl 4-((1r,4r)-4-(3-(4-(trifluoromethoxy)-phenyl)-ureido)-cyclohexyloxy)-benzoate], the inhibition at 0.1 µM (Canine sEH) is reported as 84%.
For `CC(=O)Oc1ccccc1C(=O)O` [Aspirin], the “COX-2 (IC50)/COX-1 (IC50) ratio” value (COX-2 / COX-1) is given as 0.32.
With `O=C(Nc1ccc(OC(F)(F)F)cc1)N[C@H]1CC[C@H](Oc2ccc(C(=O)O)cc2)CC1` [compound 1728, trans-4-{4-[3-(4-Trifluoromethoxy-phenyl)-ureido]-cyclohexyloxy}-benzoic acid] the Anisocytosis [1] was “Slight”, the “Bilirubin Direct” value [1] was 0.1 mg/dL and the Creatinine [1] was 1.1 mg/dL. The Echinocytes [1] was “Few”, the GGT [1] was 11 IU L^−1 and the SDH-37 [1] was 0 IU L^−1. The half-life (in vivo) was 29.8 h.
`O=C(Nc1ccc(OC(F)F)cc1)N[C@H]1CC[C@H](Oc2ccc(C(=O)O)cc2)CC1` [compound 2805, 4-(trans-4-(3-(4-(difluoromethoxy)-phenyl)-ureido)-cyclohexyloxy)-benzoic acid] gave an inhibition at 0.1 µM (Canine sEH) of 95%.
For `O=C(Nc1ccc(OC(F)(F)F)cc1)N[C@H]1CC[C@H](Oc2ccc(-c3nnn[nH]3)cc2)CC1` [compound 2806, 1-(trans-4-(4-(1H-tetrazol-5-yl)-phenoxy)-cyclohexyl)-3-(4-(trifluoromethoxy)-phenyl)-urea], the inhibition at 0.1 µM (Canine sEH) was 99%.
`O=C(Nc1ccc(OC(F)(F)F)cc1)NC1CCC(Oc2ncccn2)CC1` (stereo not shown) [compound 2810, 1-(4-(pyrimidin-2-yloxy)-cyclohexyl)-3-(4-(trifluoromethoxy)-phenyl)-urea] showed an inhibition at 0.1 µM (Canine sEH) of 52%.
For `O=C1CCC(NC(=O)Nc2ccc(OC(F)(F)F)cc2)CC1` [compound 2809, 1-(4-oxocyclohexyl)-3-(4-(trifluoromethoxy)-phenyl)-urea], the inhibition at 0.1 µM (Canine sEH) was 51%.
`O=C(O)CNC(=O)c1ccc(O[C@H]2CC[C@H](NC(=O)Nc3ccc(OC(F)(F)F)cc3)CC2)cc1` [compound 2283, trans-2-(4-(4-(3-(4-trifluoromethoxy-phenyl)-ureido)-cyclohexyloxy)-benzamido)-acetic acid] showed an inhibition at 0.1 µM (Canine sEH) of 64%.
For `NCC1(CC(=O)O)CCCCC1` [gabapentin], the “plasma concentration associated with analgesia” value [2] is given as ~18 µM, the “lowest measured plasma concentration” value [3] is given as 1 µM and the “highest measured plasma concentration” value ([3]; first sampling five hours after dosing) is given as 18 µM. For the same molecule, the “response of laminitis pain to therapy” value [4] was “refractory”.
In the case of `O=C(Nc1ccc(OC(F)(F)F)cc1)Nc1ccc(Oc2ccc(C(=O)O)cc2)cc1F` [compound 2807, 4-(3-fluoro-4-(3-(4-(trifluoromethoxy)-phenyl)-ureido)-phenoxy)-benzoic acid], the inhibition at 0.1 µM (Canine sEH) is reported as 95%.
In the case of `CCCCC1C(=O)N(c2ccccc2)N(c2ccccc2)C1=O` [phenylbutazone], the IC80 (COX-2) is listed as ~23 µM and the “response of laminitis pain to therapy” value [4] is listed as “refractory”.
